Measured values as given in US5612378A, “Bis-arylsulfonylaminobenzamide derivatives and the use thereof as factor Xa inhibitors” (priority 1995, dated 1997).

Key:
human α-thrombin = human α-thrombin (Homo sapiens, UniProt P00734); assay: In vitro inhibition of purified human thrombin (hydrolysis of Bz-Phe-Val-Arg-pNa); format: biochemical; conditions: inhibitor at 6 μM, [thrombin]=36 nM, [Bz-Phe-Val-Arg-pNa]=66 μM, pH 7.5, 37° C.
Method: The ability of the compounds of the present invention to act as inhibitors of thrombin, factor Xa and plasmin catalytic activity was assessed by determining the concentration which inhibited enzyme activity by 50% using purified human enzymes. The concentration of added inhibitor that caused a 50% decrease in the initial rate of hydrolysis was defined as the IC50 value.
(§1) All assays are based on the ability of the test compound to inhibit the hydrolysis of a peptide p-nitroanilide substrate. In a typical experiment, appropriate substrate is prepared in DMSO, and diluted into an assay buffer consisting of 50mM HEPES and 130 mM NaCl at a pH of 7.5. The final concentration for each of the substrates is listed below. All substrate concentrations are at least 10 fold lower than Km to insure inhibition is competitive. Test compounds are prepared as 1 mg/ml solutions in DMSO, and three additional 10-fold dilutions in DMSO are prepared. Enzyme solutions are prepared at the concentrations listed below in assay buffer.
(§2) In a typical IC50 determination, into each well of a 96 well plate is pipetted 280 uL of substrate solution, 10 μL of inhibitor solution, and the plate is allowed to thermally equilibrate at 37° C. in a Molecular Devices Plate Reader for at least 10 minutes. Reactions are initiated by the addition of a 20 μL aliquot of enzyme, and the absorbance increase at 405 nm is recorded for 15 minutes. Data corresponding to less than 10% of the total substrate hydrolysis is used in the calculations. The ratio of the velocity (rate of the change in absorbance as a function of time) for a sample containing no inhibitor is divided by the velocity of a sample containing inhibitor, and is plotted as a function of inhibitor concentration. The inverse of the slope is the concentration of inhibitor which produces a 50% decrease in activity of the enzyme. This concentration is referred to as the IC50.
Thrombin activity was assessed as the ability to hydrolyse the substrate N-benzoyl-Phe-Val-Arg-p-nitroanilide (Bz-Phe-Val-Arg-pNa), and was obtained from Sigma Chemical Company (St. Louis, Mo.). Substrate solutions were prepared at a concentration of 60 μM (60 μM<<Km =1.2 mM) in assay buffer. Final DMSO concentration was 0.3%. […] Final reagent concentrations were: [thrombin]=36 nM, [Bz-Phe-Val-Arg-pNa]=66 μM, [inhibitor]=60 to 0.06 μM.

Factor Xa [1] = target: T1, Factor Xa (Homo sapiens, UniProt P00742); assay: In vitro inhibition of purified human factor Xa (hydrolysis of Bz-Ile-Glu-Gly-Arg-pNa); format: biochemical; conditions: purified human enzyme, [Factor Xa]=10 nM, [Bz-Ile-Glu-Gly-Arg-pNa]=26 μM, pH 7.5, 37° C.
T1 construct: purchased Enzyme Research Laboratories, Inc
Method: The ability of the compounds of the present invention to act as inhibitors of thrombin, factor Xa and plasmin catalytic activity was assessed by determining the concentration which inhibited enzyme activity by 50% using purified human enzymes.
as §1, with “All substrate concentrations are at least 10 fold lower than Km to insure inhibition is competitive.” left out
as §2, with “Reactions” for “In a typical IC50 determination, into each well of a 96 well plate is pipetted 280 uL of substrate solution, 10 μL of inhibitor solution, and the plate is allowed to thermally equilibrate at 37° C. in a Molecular Devices Plate Reader for at least 10 minutes. Reactions”
Factor Xa activity was assessed as the ability to hydrolyse the substrate Bz-Ile-Glu-Gly-Arg-pNa, and was obtained from Sigma. […] Final DMSO concentration was 0.3%.

factor Xa [2] = conditions: cited from earlier work
smooth muscle cell = conditions: U.S. Pat. No. 5,385,885; cited from earlier work
experimental restenosis = conditions: in vivo; cited from earlier work
[3] = given as adjuncts to thrombolysis; cited from earlier work

T1 sequence (P00742 235-488 limits assumed): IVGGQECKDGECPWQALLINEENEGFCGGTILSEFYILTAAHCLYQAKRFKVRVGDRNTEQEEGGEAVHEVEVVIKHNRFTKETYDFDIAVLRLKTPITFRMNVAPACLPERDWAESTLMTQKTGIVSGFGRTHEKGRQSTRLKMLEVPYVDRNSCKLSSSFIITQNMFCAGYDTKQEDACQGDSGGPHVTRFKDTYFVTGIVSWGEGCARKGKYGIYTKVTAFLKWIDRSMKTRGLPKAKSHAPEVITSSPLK
T1 sequence (P00742 41-179 partner limits assumed): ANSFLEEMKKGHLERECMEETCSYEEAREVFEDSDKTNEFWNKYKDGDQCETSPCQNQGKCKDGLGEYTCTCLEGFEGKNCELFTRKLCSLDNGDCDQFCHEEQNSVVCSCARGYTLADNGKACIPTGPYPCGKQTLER

O=C(NCc1cccc(CNC(=O)c2cccc(NS(=O)(=O)c3ccc4ccccc4c3)c2)c1)c1cccc(NS(=O)(=O)c2ccc3ccccc3c2)c1 [Example 7, 1,3-di-[3-(2-naphthalenylsulfonylamino)benzamidomethyl]benzene]
inhibition at 6 µM (human α-thrombin): 20%
IC50 (Factor Xa [1]): 2400 nM

ecotin: The peptide ecotin is another selective, reversible, tight-binding inhibitor of factor Xa
inhibition of factor Xa (factor Xa [2]): selective, reversible, tight-binding inhibitor of factor Xa

TAP: soft tick derived protein TAP (tick anticoagulant peptide) (YNRLCIKPRDWIDECDSNEGGERAYFRNGKGGCDSFWICPEDHTGADYYSSYRDCFNACI; UniProt P17726 1-60, looked up)
smooth muscle cell proliferation inhibitory activity (smooth muscle cell): smooth muscle cell proliferation inhibitory activity
reduction of experimental restenosis (experimental restenosis): reduce experimental restenosis
clot lysis and reocclusion [3]: accelerated clot lysis and prevented reocclusion

O=C(NCCCCCCCCNC(=O)c1cccc(NS(=O)(=O)c2ccc3ccccc3c2)c1)c1cccc(NS(=O)(=O)c2ccc3ccccc3c2)c1 [Example 5, 1,8-di[3-(2-naphthalenylsulfonylamino)benzamido]octane]
inhibition at 6 µM (human α-thrombin): 20%
IC50 (Factor Xa [1]): 2100 nM

O=C(NCCCCCNC(=O)c1cccc(NS(=O)(=O)c2ccc3ccccc3c2)c1)c1cccc(NS(=O)(=O)c2ccc3ccccc3c2)c1 [Example 4, 1,5-di[3-(2-naphthalenylsulfonylamino)benzamido]pentane]
inhibition at 6 µM (human α-thrombin): 0%
IC50 (Factor Xa [1]): 3000 nM

O=C(NCCCN1CCN(CCCNC(=O)c2cccc(NS(=O)(=O)c3ccc4ccccc4c3)c2)CC1)c1cccc(NS(=O)(=O)c2ccc3ccccc3c2)c1 [Example 6, 1,4-di-[3-(2-naphthalenylsulfonylamino)benzamidopropyl]piperazine]
inhibition at 6 µM (human α-thrombin): 0%
IC50 (Factor Xa [1]): 5200 nM

B1: antistasin: leech-derived, 119-amino acid protein antistasin (protein, UniProt P15358 18-136, looked up)
Antistasin: QGPFGPGCEEAGCPEGSACNIITDRCTCSGVRCRMHCPHGFQRSRYGCEFCKCRLEPMKATCDISECPEGMMCSRLTNKCDCKIDINCRKTCPNGLKRDKLGCEYCECRPKRKLIPRLS
smooth muscle cell proliferation inhibitory activity (smooth muscle cell): smooth muscle cell proliferation inhibitory activity
reduction of experimental restenosis (experimental restenosis): reduce experimental restenosis
clot lysis and reocclusion [3]: accelerated clot lysis and prevented reocclusion
